Patent publication US20250230193A1, “CYCLIC COMPOUND HAVING SELECTIVE KRAS INHIBITORY EFFECT ON HRAS AND NRAS” (CHUGAI SEIYAKU KABUSHIKI KAISHA, priority 2022, published 2025)

Key:
[1] = target: GDP-bound NRAS wild-type protein (Homo sapiens, UniProt P01111); assay: Binding to NRAS by surface plasmon resonance (SPR), Single Cycle Kinetics; settings: KD ratio, GDP-bound NRAS wild-type vs GDP-bound KRAS wild-type, SPR
[2] = target: GDP-bound HRAS wild-type protein (Homo sapiens, UniProt P01112); assay: Binding to HRAS by surface plasmon resonance (SPR), Single Cycle Kinetics; settings: KD ratio, GDP-bound HRAS wild-type vs GDP-bound KRAS wild-type, SPR
Sequence of GDP-bound HRAS wild-type protein (P01112 whole entry): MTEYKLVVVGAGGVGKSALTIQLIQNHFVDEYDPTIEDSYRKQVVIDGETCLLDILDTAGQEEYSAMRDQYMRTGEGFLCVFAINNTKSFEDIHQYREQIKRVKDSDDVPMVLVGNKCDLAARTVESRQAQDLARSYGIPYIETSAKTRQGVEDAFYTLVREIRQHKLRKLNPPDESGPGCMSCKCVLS

Sequence of GDP-bound NRAS wild-type protein (P01111 whole entry): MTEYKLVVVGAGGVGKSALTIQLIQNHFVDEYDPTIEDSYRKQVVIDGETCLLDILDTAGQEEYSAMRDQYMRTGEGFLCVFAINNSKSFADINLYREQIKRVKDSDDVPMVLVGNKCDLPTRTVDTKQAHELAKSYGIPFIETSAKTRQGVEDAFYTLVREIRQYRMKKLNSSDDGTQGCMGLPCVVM

SMILES	NRAS/KRAS (ratio of KD value with respect to NRAS to KD value with respect to KRAS) [1]	HRAS/KRAS (ratio of KD value with respect to HRAS to KD value with respect to KRAS) [2]
CC[C@H](C)[C@@H]1NC(=O)[C@H](CC(C)C)N(C)C(=O)C[C@@H](C(=O)N2CCOCC2)N(C)C(=O)[C@H](C2CCCC2)N(C)C(=O)C2(CCC2)NC(=O)[C@@H]2[C@H]3C[C@H]3CN2C(=O)[C@H](CCc2cc(F)c(C(F)(F)F)c(F)c2)NC(=O)CN(C)C(=O)[C@H](Cc2ccc(C(F)(F)F)cc2)N2CCCC[C@@H](C2=O)N(C)C(=O)CN(C)C1=O [PP0810]	B (a compound having 3 or more and less than 10 is denoted as B)	B (a compound having 3 or more and less than 10 is denoted as B)
CCO[C@@H]1C[C@H]2C(=O)NC3(CCC3)C(=O)N(C)[C@@H](C(CC)CC)C(=O)N(C)[C@H](C(=O)N3CCOCC3)CC(=O)N(C)[C@@H](CC(C)C)C(=O)N[C@@H]([C@@H](C)CC)C(=O)N(C)CC(=O)N(C)[C@H]3CCCCN(C3=O)[C@@H](Cc3ccc(C(F)(F)F)cc3)C(=O)N(C)CC(=O)N[C@@H](CCc3cc(F)c(C(F)(F)F)c(F)c3)C(=O)N2C1 [PP0811]	B (a compound having 3 or more and less than 10 is denoted as B)	B (a compound having 3 or more and less than 10 is denoted as B)
CCOC1CC2C(=O)NC3(CCC3)C(=O)N(C)C(C(C)CC)C(=O)N(C)[C@H](C(=O)N3CCOCC3)CC(=O)N(C)[C@@H](CC(C)C)C(=O)N[C@@H]([C@@H](C)CC)C(=O)N(C)CC(=O)N(C)[C@H]3CCCCN(C3=O)[C@@H](Cc3ccc(C(F)(F)F)cc3)C(=O)N(C)CC(=O)N[C@@H](CCc3cc(F)c(C(F)(F)F)c(F)c3)C(=O)N2C1 (stereo partly drawn) [PP0812]	B (a compound having 3 or more and less than 10 is denoted as B)	B (a compound having 3 or more and less than 10 is denoted as B)
CCO[C@@H]1C[C@H]2C(=O)NC3(CCC3)C(=O)N(C)[C@@H](CC(F)F)C(=O)N(C)[C@H](C(=O)N3CCOCC3)CC(=O)N(C)[C@@H](CC(C)C)C(=O)N[C@@H]([C@@H](C)CC)C(=O)N(C)CC(=O)N(C)[C@H]3CCCCN(C3=O)[C@@H](Cc3ccc(C(F)(F)F)cc3)C(=O)N(C)CC(=O)N[C@@H](CCc3cc(F)c(C(F)(F)F)c(F)c3)C(=O)N2C1 [PP0813]	C (A compound having a KD ratio of 0.1 or more and less than 3 is denoted as C)	B (a compound having 3 or more and less than 10 is denoted as B)
CCO[C@@H]1C[C@H]2C(=O)NC3(CCC3)C(=O)N(C)[C@@H](C(C)(C)C)C(=O)N(C)[C@H](C(=O)N3CCOCC3)CC(=O)N(C)[C@@H](CC(C)C)C(=O)N[C@@H]([C@@H](C)CC)C(=O)N(C)CC(=O)N(C)[C@H]3CCCCN(C3=O)[C@@H](Cc3ccc(C(F)(F)F)cc3)C(=O)N(C)CC(=O)N[C@@H](CCc3cc(F)c(C(F)(F)F)c(F)c3)C(=O)N2C1 [PP0814]	B (a compound having 3 or more and less than 10 is denoted as B)	B (a compound having 3 or more and less than 10 is denoted as B)
CCO[C@@H]1C[C@H]2C(=O)NC3(CCC3)C(=O)N(C)[C@@H](C3CCCC3)C(=O)N(C)[C@H](C(=O)N3CCOCC3)CC(=O)N(C)[C@@H](CC(C)C)C(=O)N[C@@H]([C@H](C)CC)C(=O)N(C)CC(=O)N(C)[C@H]3CCCCCN(C3=O)[C@@H](Cc3ccc(C(F)(F)F)cc3)C(=O)N(C)CC(=O)N[C@@H](CCc3cc(F)c(C(F)(F)F)c(F)c3)C(=O)N2C1 [PP0815]	B (a compound having 3 or more and less than 10 is denoted as B)	B (a compound having 3 or more and less than 10 is denoted as B)
CCO[C@@H]1C[C@H]2C(=O)NC3(CCC3)C(=O)N(C)[C@@H](C3CCCC3)C(=O)N(C)[C@H](C(=O)N3CCOCC3)CC(=O)N(C)[C@@H](CC(C)C)C(=O)N[C@@H](C3CC(F)(F)C3)C(=O)N(C)CC(=O)N(C)[C@H]3CCCCCN(C3=O)[C@@H](Cc3ccc(C(F)(F)F)cc3)C(=O)N(C)CC(=O)N[C@@H](CCc3cc(F)c(C(F)(F)F)c(F)c3)C(=O)N2C1 [PP0816]	A (a compound having 10 or more and less than 20 is denoted as A)	B (a compound having 3 or more and less than 10 is denoted as B)
CC[C@H](C)[C@@H]1NC(=O)[C@H](CC(C)C)N(C)C(=O)C[C@@H](C(=O)N2CCOCC2)N(C)C(=O)[C@H](C2CCCC2)N(C)C(=O)C2(CCC2)NC(=O)[C@]2(C)CCCN2C(=O)[C@H](CCc2cc(F)c(C(F)(F)F)c(F)c2)NC(=O)CN(C)C(=O)[C@H](Cc2ccc(C(F)(F)F)cc2)N2CCCCC[C@@H](C2=O)N(C)C(=O)CN(C)C1=O [PP0817]	A (a compound having 10 or more and less than 20 is denoted as A)	B (a compound having 3 or more and less than 10 is denoted as B)
CC[C@H](C)[C@@H]1NC(=O)[C@H](CC(C)C)N(C)C(=O)C[C@@H](C(=O)N2CCOCC2)N(C)C(=O)[C@H](C2CCCC2)N(C)C(=O)C2(CCC2)NC(=O)[C@@H]2C[C@@H](C(F)(F)F)CN2C(=O)[C@H](CCc2cc(F)c(C(F)(F)F)c(F)c2)NC(=O)CN(C)C(=O)[C@H](Cc2ccc(C(F)(F)F)cc2)N2CCCCC[C@@H](C2=O)N(C)C(=O)CN(C)C1=O [PP0818]	B (a compound having 3 or more and less than 10 is denoted as B)	B (a compound having 3 or more and less than 10 is denoted as B)
CC[C@H](C)[C@@H]1NC(=O)[C@H](CC(C)C)N(C)C(=O)C[C@@H](C(=O)N2CCOCC2)N(C)C(=O)[C@H](C2CCCC2)N(C)C(=O)C2(CCC2)NC(=O)[C@@H]2[C@H]3C[C@H]3CN2C(=O)[C@H](CCc2cc(F)c(C(F)(F)F)c(F)c2)NC(=O)CN(C)C(=O)[C@H](Cc2ccc(C(F)(F)F)cc2)N2CCCCC[C@@H](C2=O)N(C)C(=O)CN(C)C1=O [PP0819]	A (a compound having 10 or more and less than 20 is denoted as A)	B (a compound having 3 or more and less than 10 is denoted as B)
CCO[C@@H]1C[C@H]2C(=O)NC3(CCC3)C(=O)N(C)[C@@H](C(CC)CC)C(=O)N(C)[C@H](C(=O)N3CCOCC3)CC(=O)N(C)[C@@H](CC(C)C)C(=O)N[C@@H]([C@@H](C)CC)C(=O)N(C)CC(=O)N(C)[C@H]3CCCCCN(C3=O)[C@@H](Cc3ccc(C(F)(F)F)cc3)C(=O)N(C)CC(=O)N[C@@H](CCc3cc(F)c(C(F)(F)F)c(F)c3)C(=O)N2C1 [PP0820]	A (a compound having 10 or more and less than 20 is denoted as A)	B (a compound having 3 or more and less than 10 is denoted as B)
CCO[C@@H]1C[C@H]2C(=O)NC3(CCC3)C(=O)N(C)[C@@H]([C@H](C)CC)C(=O)N(C)[C@H](C(=O)N3CCOCC3)CC(=O)N(C)[C@@H](CC(C)C)C(=O)N[C@@H]([C@@H](C)CC)C(=O)N(C)CC(=O)N(C)[C@H]3CCCCCN(C3=O)[C@@H](Cc3ccc(C(F)(F)F)cc3)C(=O)N(C)CC(=O)N[C@@H](CCc3cc(F)c(C(F)(F)F)c(F)c3)C(=O)N2C1 [PP0821]	A (a compound having 10 or more and less than 20 is denoted as A)	B (a compound having 3 or more and less than 10 is denoted as B)
